Laboratory results as given in ChEMBL document CHEMBL5029167, “Development of Asialoglycoprotein-Mediated Hepatocyte-Targeting Antitumor Prodrugs Triggered by Glutathione” (J Med Chem, 2021).
pIC50: −log10 of the molar value. Calls of active or inactive are those of the source. The calls are words filed in the database; no cut-off is given here.

Key:
[1] = Drug uptake in human A549 cells at 10 uM after 15 mins by confocal scanning microscopic analysis; type: ADME, cell-based; settings: a549, 0.25 h
[2] = Drug uptake in human HeLa cells at 10 uM after 15 mins by confocal scanning microscopic analysis; type: ADME, cell-based; settings: 0.25 h
[3] = Prodrug release at pH 6.5 assessed as stability after 48 hrs in absence of GSH by LC-MS analysis; type: ADME; settings: pH 6.5, 48 h
[4] = Toxicity in Kunming mouse implanted with mouse H22 cells assessed as change in organ weight at 10 mg/kg after 7 days; type: organism-based; settings: in vivo, 168 h, time 7 day
HepG2 [5] = assay: Cytotoxicity against human HepG2 cells at 10 to 80 uM after 24 hrs; type: cell-based; settings: hepg2, 24 h, dose 10-80 µM
[6] = Drug distribution in Kunming mouse liver at 10 mg/kg, iv measured after 3 hrs by confocal scanning microscopic analysis; type: ADME, organism-based; settings: in vivo
[7] = Toxicity in Kunming mouse assessed as change in body weight at 50 mg/kg; type: organism-based; settings: in vivo
[8] = Prodrug release assessed as stability after 24 hrs in presence of NADH by LC-MS analysis; type: ADME
[9] = Prodrug release at pH 7.4 assessed as stability after 48 hrs in absence of GSH by LC-MS analysis; type: ADME; settings: pH 7.4, 48 h
H22 [10] = assay: Antitumor activity against mouse H22 cells implanted in Kunming mouse assessed as tumor growth inhibition at 10 mg/kg measured on day 7 by H and E staining based histopathological analysis; type: functional, organism-based; settings: time 7.0 day
[11] = Drug uptake in human HepG2 cells pretreated with galactose for 30 mins followed by compound addition and measured after 15 mins by confocal scanning microscopic analysis; type: ADME, cell-based; settings: hepg2, 0.75 h, time 45 min
[12] = Drug uptake in human HepG2 cells at 10 uM after 15 mins by confocal scanning microscopic analysis; type: ADME, cell-based; settings: hepg2, 0.25 h
[13] = Drug uptake in human SGC-7901 cells at 10 uM after 15 mins by confocal scanning microscopic analysis; type: ADME, cell-based; settings: sgc-7901, 0.25 h
[14] = Toxicity in Kunming mouse implanted with mouse H22 cells assessed as change in body weight at 10 mg/kg after 7 days; type: organism-based; settings: in vivo, 168 h, time 7 day
H22 [15] = assay: Antitumor activity against mouse H22 cells implanted in Kunming mouse assessed as tumor growth inhibition at 10 mg/kg measured on day 7; type: functional; design: scale not given: the % may be the effect or the level left; settings: time 7 day
[16] = Toxicity in Kunming mouse assessed as change in organ weight at 50 mg/kg; type: organism-based; settings: in vivo
[17] = Prodrug release at pH 6.5 assessed as stability after 120 mins in presence of GSH by LC-MS analysis; type: ADME; settings: pH 6.5, 2 h
[18] = Toxicity in Kunming mouse implanted with mouse H22 cells assessed as change in body weight at 0.8 mg/kg after 7 days; type: organism-based; settings: in vivo, 168 h, time 7 day
[19] = Toxicity in Kunming mouse implanted with mouse H22 cells assessed as change in organ weight at 0.8 mg/kg after 7 days; type: organism-based; settings: in vivo, 168 h, time 7 day
H22 [20] = assay: Antitumor activity against mouse H22 cells implanted in Kunming mouse assessed as tumor growth inhibition at 0.8 mg/kg measured on day 7; type: functional; design: scale not given: the % may be the effect or the level left; settings: time 7 day
HepG2 [21] = assay: Cell cycle arrest in human HepG2 cells assessed as accumulation at G2/M phase at 2 uM measured after 24 hrs by propidium iodide staining based flow cytometric analysis (reference value: 7.63%); type: functional
HepG2 [22] = assay: Induction of apoptosis in human HepG2 cells assessed as early apoptotic cells at 9 uM measured after 24 hrs by annexinV-FITC/propidium iodide double staining based flow cytometric analysis (reference value: 6.3 %); type: functional
HepG2 [23] = assay: Induction of apoptosis in human HepG2 cells assessed as necrotic cells at 6 uM measured after 24 hrs by annexinV-FITC/propidium iodide double staining based flow cytometric analysis (reference value: 0.0 %); type: functional
HepG2 [24] = assay: Cell cycle arrest in human HepG2 cells assessed as accumulation at S phase at 2 uM measured after 24 hrs by propidium iodide staining based flow cytometric analysis (reference value: 37.10%); type: functional
HepG2 [25] = assay: Induction of apoptosis in human HepG2 cells assessed as necrotic cells at 9 uM measured after 24 hrs by annexinV-FITC/propidium iodide double staining based flow cytometric analysis (reference value: 0.0 %); type: functional
HepG2 [26] = assay: Induction of apoptosis in human HepG2 cells assessed as late apoptotic cells at 12 uM measured after 24 hrs by annexinV-FITC/propidium iodide double staining based flow cytometric analysis (reference value: 0.1 %); type: functional
[27] = Drug distribution in Kunming mouse heart at 3.5 mg/kg, iv measured after 3 hrs by confocal scanning microscopic analysis; type: ADME, organism-based; settings: in vivo
HepG2 [28] = assay: Induction of apoptosis in human HepG2 cells assessed as viable cells at 12 uM measured after 24 hrs by annexinV-FITC/propidium iodide double staining based flow cytometric analysis (reference value: 93.6 %); type: functional; settings: read-out: Activity
HepG2 [29] = assay: Inhibition of cell migration in human HepG2 cells after 24 hrs by crystal violet staining based inverted microscopic analysis; type: functional
HepG2 [30] = assay: Inhibition of colony formation in human HepG2 cells after 7 days by crystal violet staining based inverted microscopic analysis; type: functional, cell-based; settings: time 7.0 day
HepG2 [31] = assay: Cell cycle arrest in human HepG2 cells assessed as accumulation at G0/G1 phase at 8 uM measured after 24 hrs by propidium iodide staining based flow cytometric analysis (reference value: 55.27%); type: functional
[32] = Toxicity in Kunming mouse implanted with mouse H22 cells assessed as change in body weight at 3.5 mg/kg after 7 days; type: organism-based; settings: in vivo, 168 h, time 7 day
HepG2 [33] = assay: Induction of morphological changes in human HepG2 cells assessed as chromatin fragmentation incubated for 24 hrs by Hoechst 33342 staining based analysis; type: functional, cell-based
HepG2 [34] = assay: Cell cycle arrest in human HepG2 cells assessed as accumulation at S phase at 8 uM measured after 24 hrs by propidium iodide staining based flow cytometric analysis (reference value: 37.10%); type: functional
HepG2 [35] = assay: Induction of apoptosis in human HepG2 cells assessed as early apoptotic cells at 12 uM measured after 24 hrs by annexinV-FITC/propidium iodide double staining based flow cytometric analysis (reference value: 6.3 %); type: functional
HepG2 [36] = assay: Cell cycle arrest in human HepG2 cells assessed as accumulation at G0/G1 phase at 4 uM measured after 24 hrs by propidium iodide staining based flow cytometric analysis (reference value: 55.27%); type: functional
HepG2 [37] = assay: Induction of apoptosis in human HepG2 cells assessed as early apoptotic cells at 6 uM measured after 24 hrs by annexinV-FITC/propidium iodide double staining based flow cytometric analysis (reference value: 6.3 %); type: functional
HepG2 [38] = assay: Cell cycle arrest in human HepG2 cells assessed as accumulation at G2/M phase at 4 uM measured after 24 hrs by propidium iodide staining based flow cytometric analysis (reference value: 7.63%); type: functional
HepG2 [39] = assay: Induction of apoptosis in human HepG2 cells assessed as upregulation of caspase 3 protein expression at 2 to 8 uM after 24 hrs; type: functional, cell-based; settings: dose 2-8 µM
HepG2 [40] = assay: Induction of apoptosis in human HepG2 cells assessed as viable cells at 6 uM measured after 24 hrs by annexinV-FITC/propidium iodide double staining based flow cytometric analysis (reference value: 93.6 %); type: functional; settings: read-out: Activity
HepG2 [41] = assay: Induction of apoptosis in human HepG2 cells assessed as viable cells at 9 uM measured after 24 hrs by annexinV-FITC/propidium iodide double staining based flow cytometric analysis (reference value: 93.6 %); type: functional; settings: read-out: Activity
[42] = Drug distribution in Kunming mouse spleen at 3.5 mg/kg, iv measured after 3 hrs by confocal scanning microscopic analysis; type: ADME, organism-based; settings: in vivo
[43] = Toxicity in Kunming mouse implanted with mouse H22 cells assessed as change in organ weight at 3.5 mg/kg after 7 days; type: organism-based; settings: in vivo, 168 h, time 7 day
HepG2 [44] = assay: Induction of apoptosis in human HepG2 cells assessed as necrotic cells at 12 uM measured after 24 hrs by annexinV-FITC/propidium iodide double staining based flow cytometric analysis (reference value: 0.0 %); type: functional
HepG2 [45] = assay: Induction of apoptosis in human HepG2 cells assessed as late apoptotic cells at 9 uM measured after 24 hrs by annexinV-FITC/propidium iodide double staining based flow cytometric analysis (reference value: 0.1 %); type: functional
[46] = Drug distribution in Kunming mouse lung at 3.5 mg/kg, iv measured after 3 hrs by confocal scanning microscopic analysis; type: ADME, organism-based; settings: in vivo
[47] = Drug distribution in Kunming mouse liver at 3.5 mg/kg, iv measured after 3 hrs by confocal scanning microscopic analysis; type: ADME, organism-based; settings: in vivo
[48] = Drug distribution in Kunming mouse kidney at 3.5 mg/kg, iv measured after 3 hrs by confocal scanning microscopic analysis; type: ADME, organism-based; settings: in vivo
H22 [49] = assay: Antitumor activity against mouse H22 cells implanted in Kunming mouse assessed as tumor growth inhibition at 3.5 mg/kg measured on day 7; type: functional; design: scale not given: the % may be the effect or the level left; settings: time 7 day
HepG2 [50] = assay: Cell cycle arrest in human HepG2 cells assessed as accumulation at S phase at 4 uM measured after 24 hrs by propidium iodide staining based flow cytometric analysis (reference value: 37.10%); type: functional
HepG2 [51] = assay: Induction of apoptosis in human HepG2 cells assessed as late apoptotic cells at 6 uM measured after 24 hrs by annexinV-FITC/propidium iodide double staining based flow cytometric analysis (reference value: 0.1 %); type: functional
HepG2 [52] = assay: Induction of morphological changes in human HepG2 cells assessed as chromatin condensation incubated for 24 hrs by Hoechst 33342 staining based analysis; type: functional, cell-based
HepG2 [53] = assay: Cell cycle arrest in human HepG2 cells assessed as accumulation at G2/M phase at 8 uM measured after 24 hrs by propidium iodide staining based flow cytometric analysis (reference value: 7.63%); type: functional
HepG2 [54] = assay: Cytotoxicity against human HepG2 cells at 2 to 10 uM after 48 hrs by MTT assay; type: functional, cell-based; settings: HepG2, 48 h
HepG2 [55] = assay: Cell cycle arrest in human HepG2 cells assessed as accumulation at G0/G1 phase at 2 uM measured after 24 hrs by propidium iodide staining based flow cytometric analysis (reference value: 55.27%); type: functional

C=C[C@]1(C)CC[C@@H](C(=C)Cn2cc(CN3C(=O)c4cccc5c(N6CCN(C(=O)OCCSSCCOCC(=O)NC(COCc7cn([C@@H]8O[C@H](CO)[C@H](O)[C@H](O)[C@H]8O)nn7)(COCc7cn([C@@H]8O[C@H](CO)[C@H](O)[C@H](O)[C@H]8O)nn7)COCc7cn([C@@H]8O[C@H](CO)[C@H](O)[C@H](O)[C@H]8O)nn7)CC6)ccc(c45)C3=O)nn2)C[C@H]1C(=C)C
Drug uptake [1]: Active
Drug uptake [2]: Active
Stability [3]: Stable
Activity [4]: Non-Toxic
Activity (HepG2 [5]): Non-Toxic
Drug uptake [6]: Active
Activity [7]: Non-Toxic
Stability [8]: 98.9%
Stability [9]: Stable
Activity (H22 [10]): Active
Drug uptake [11]: Not Active
Drug uptake [12]: Active
Drug uptake [13]: Active
Activity [14]: Non-Toxic
Activity (H22 [15]): 51.22%
Activity [16]: Non-Toxic
Stability [17]: Unstable

O=c1[nH]cc(F)c(=O)[nH]1 [FLUOROURACIL]
Activity [18]: Non-Toxic
Activity [19]: Non-Toxic
Activity (H22 [20]): 26.41%

C=C[C@]1(C)CC[C@@H](C(=C)Cn2cc(CN3C(=O)c4cccc5c(N6CCNCC6)ccc(c45)C3=O)nn2)C[C@H]1C(=C)C
Drug uptake [1]: Not Active
Activity (HepG2 [21]): 6.61%
Drug uptake [2]: Not Active
Activity (HepG2 [22]): 89.4%
Activity (HepG2 [23]): 0%
Activity (HepG2 [24]): 29.93%
Activity (HepG2 [25]): 0%
Activity (HepG2 [26]): 0.3%
Drug uptake [27]: Not Active
viability at 12 µM (HepG2 [28]): 4.7%
inhibition (HepG2 [29]): Dose-Dependent Effect
inhibition (HepG2 [30]): Dose-Dependent Effect
Activity (HepG2 [31]): 71.44%
Activity [32]: Non-Toxic
Activity (HepG2 [33]): Active
Activity (HepG2 [34]): 21.81%
Activity (HepG2 [35]): 94.9%
Activity (HepG2 [36]): 64.24%
Activity (HepG2 [37]): 46.5%
Activity (HepG2 [38]): 5.29%
Activity (HepG2 [39]): Active
viability at 6 µM (HepG2 [40]): 51.5%
viability at 9 µM (HepG2 [41]): 9.7%
Drug uptake [42]: Not Active
Activity [43]: Non-Toxic
Drug uptake [12]: Not Active
Drug uptake [13]: Not Active
Activity (HepG2 [44]): 0%
Activity (HepG2 [45]): 0.9%
Drug uptake [46]: Not Active
Drug uptake [47]: Not Active
Drug uptake [48]: Not Active
Activity (H22 [49]): 33.65%
Activity (HepG2 [50]): 30.47%
Activity (HepG2 [51]): 1.9%
Activity (HepG2 [52]): Active
Activity (HepG2 [53]): 67.4%
pIC50 (HepG2 [54]): 5.21
Activity (HepG2 [55]): 63.46%
